Source: ChEMBL document CHEMBL1125620, “Synthesis and biological evaluation of a series of substituted N-alkoxyimides and -amides as potential atypical antipsychotic agents” (J Med Chem, 1991)

What was measured:
[1] = biological target: Serotonin 2 (5-HT2) receptor (Rattus norvegicus, UniProt P30994+P08909+P14842); test: Compound was measured for affinity at 5-hydroxytryptamine 2 receptor in rat cortical by [3H]spiroperidol displacement.
[2] = biological target: T1, 5-hydroxytryptamine receptor 1A (Rattus norvegicus, UniProt P19327); test: Affinity for 5-hydroxytryptamine 1A receptor labeled with [3H]8-OH-DPAT radioligand in hippocampus tissue; assay type: tissue-based
T1 sequence (P19327 whole entry): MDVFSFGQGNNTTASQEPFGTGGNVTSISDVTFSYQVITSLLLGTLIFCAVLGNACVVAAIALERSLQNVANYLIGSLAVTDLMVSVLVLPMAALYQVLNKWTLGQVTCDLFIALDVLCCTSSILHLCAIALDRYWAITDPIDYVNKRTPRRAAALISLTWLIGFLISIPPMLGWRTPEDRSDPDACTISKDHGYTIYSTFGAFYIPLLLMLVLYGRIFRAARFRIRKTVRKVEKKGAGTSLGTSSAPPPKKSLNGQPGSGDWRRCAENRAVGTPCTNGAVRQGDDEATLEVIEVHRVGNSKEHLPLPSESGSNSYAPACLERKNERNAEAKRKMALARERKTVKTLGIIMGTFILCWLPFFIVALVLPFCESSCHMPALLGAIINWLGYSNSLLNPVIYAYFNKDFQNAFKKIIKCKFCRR

Mus musculus = test: Inhibition of apomorphine induced mouse climbing, administered intraperitoneally; assay type: functional; settings: ip
Rattus norvegicus [3] = test: In vivo activity administered intraperitoneally was determined by pole climb escape failures in rat; assay type: functional; settings: ip
Rattus norvegicus [4] = test: Activity administered intraperitoneally was determined by social interaction of rat at […]; assay type: functional
Rattus norvegicus [5] = test: In vivo inhibition of apomorphine induced stereotypy in rat by the compound administered intraperitoneally; assay type: functional; settings: ip
Rattus norvegicus [6] = test: In vivo activity administered intraperitoneally was determined by induction of catalepsy in rat; assay type: functional; settings: ip
Rattus norvegicus [7] = test: In vivo activity administered intraperitoneally was determined by intracranial self stimulation in rat; assay type: functional; settings: ip
Rattus norvegicus [8] = test: In vivo activity administered intraperitoneally was determined by pole climb avoidance in rat; assay type: functional; settings: ip
Rattus norvegicus [9] = test: In vivo activity administered intraperitoneally was determined by induction of catalepsy in rat at 30 mg/kg
Rattus norvegicus [10] = test: In vivo activity administered intraperitoneally was determined by social interaction in rat at 1.0 mg/kg
Rattus norvegicus [11] = test: In vivo activity was measured by the pole climb avoidance in rat; assay type: functional
D(1A) dopamine receptor = D(1A) dopamine receptor (Rattus norvegicus, UniProt P18901); test: compound was measured as affinity for dopamine receptor D1 labeled with [3H]-SCH- 23390 radioligand in striatum tissue; assay type: tissue-based
Sequence of D(1A) dopamine receptor (P18901 whole entry): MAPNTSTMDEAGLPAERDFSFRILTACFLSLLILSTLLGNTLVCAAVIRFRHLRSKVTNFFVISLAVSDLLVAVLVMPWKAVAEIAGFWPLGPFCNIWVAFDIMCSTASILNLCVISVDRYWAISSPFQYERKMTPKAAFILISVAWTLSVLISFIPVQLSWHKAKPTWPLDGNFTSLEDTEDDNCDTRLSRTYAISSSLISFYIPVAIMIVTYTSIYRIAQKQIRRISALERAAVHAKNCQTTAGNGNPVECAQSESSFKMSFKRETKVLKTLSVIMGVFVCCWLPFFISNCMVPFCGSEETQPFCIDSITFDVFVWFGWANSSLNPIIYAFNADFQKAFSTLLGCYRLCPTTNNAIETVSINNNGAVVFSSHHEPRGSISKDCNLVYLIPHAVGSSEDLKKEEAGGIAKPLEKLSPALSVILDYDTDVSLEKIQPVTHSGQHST

[12] = biological target: Sigma non-opioid intracellular receptor 1 (Rattus norvegicus, UniProt Q9R0C9); test: compound was measured as affinity for sigma receptor labeled with [3H]-SKF- […] radioligand in slide-mounted slices
Sequence of Sigma non-opioid intracellular receptor 1 (Q9R0C9 whole entry): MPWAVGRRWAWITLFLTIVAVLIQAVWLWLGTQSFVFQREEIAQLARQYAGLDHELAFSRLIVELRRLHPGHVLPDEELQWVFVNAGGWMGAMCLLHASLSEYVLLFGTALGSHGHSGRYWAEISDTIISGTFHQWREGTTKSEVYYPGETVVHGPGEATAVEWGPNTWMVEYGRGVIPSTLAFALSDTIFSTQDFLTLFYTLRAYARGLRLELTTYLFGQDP

Rattus norvegicus [13] = test: In vivo inhibition of amphetamine induced stereotypy in rat by the compound administered intraperitoneally at […]; assay type: functional
[14] = biological target: 5-hydroxytryptamine receptor 1B (Rattus norvegicus, UniProt P28564); test: compound was measured for affinity against 5-hydroxytryptamine 1B receptor labelled with [3H]5-HT radioligand in striatum tissue; assay type: tissue-based
Sequence of 5-hydroxytryptamine receptor 1B (P28564 whole entry): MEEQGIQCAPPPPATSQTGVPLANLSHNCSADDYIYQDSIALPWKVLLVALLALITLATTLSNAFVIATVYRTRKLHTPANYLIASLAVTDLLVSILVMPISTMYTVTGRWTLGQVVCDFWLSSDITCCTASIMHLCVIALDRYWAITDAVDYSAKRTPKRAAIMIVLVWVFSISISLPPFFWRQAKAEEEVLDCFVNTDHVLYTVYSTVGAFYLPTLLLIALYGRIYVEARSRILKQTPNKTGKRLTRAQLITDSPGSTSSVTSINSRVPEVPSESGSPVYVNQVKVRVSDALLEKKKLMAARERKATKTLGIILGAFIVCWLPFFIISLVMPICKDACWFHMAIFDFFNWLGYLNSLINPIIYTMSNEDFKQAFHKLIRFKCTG

Rattus norvegicus [15] = test: In vivo activity administered orally was determined by intracranial self stimulation in rat; assay type: functional; settings: po
Rattus norvegicus [16] = test: In vivo activity administered intraperitoneally was determined by induction of catalepsy in rat at 40 mg/kg
[17] = biological target: T2, Alpha adrenergic receptor 1A and 1B (Rattus norvegicus, UniProt P15823+P43140); test: compound was measured as affinity for Alpha-1 adrenergic receptor labeled with [3H]WB-4101 radioligand in whole brain tissue
T2 sequence (P15823 whole entry): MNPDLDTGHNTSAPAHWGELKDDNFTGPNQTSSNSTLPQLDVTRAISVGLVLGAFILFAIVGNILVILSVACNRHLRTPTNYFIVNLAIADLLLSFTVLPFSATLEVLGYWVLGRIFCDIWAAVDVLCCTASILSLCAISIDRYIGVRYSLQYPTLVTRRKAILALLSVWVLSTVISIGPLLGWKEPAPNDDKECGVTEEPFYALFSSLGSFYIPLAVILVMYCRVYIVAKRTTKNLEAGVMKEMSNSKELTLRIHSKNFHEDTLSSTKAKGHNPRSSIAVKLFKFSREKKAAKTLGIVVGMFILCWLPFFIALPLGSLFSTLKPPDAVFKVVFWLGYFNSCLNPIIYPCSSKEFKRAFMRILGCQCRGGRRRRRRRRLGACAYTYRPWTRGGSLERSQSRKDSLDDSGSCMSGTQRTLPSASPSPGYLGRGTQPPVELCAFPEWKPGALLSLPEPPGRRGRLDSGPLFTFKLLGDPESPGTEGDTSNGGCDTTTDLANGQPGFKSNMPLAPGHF
T2 sequence (P43140 whole entry): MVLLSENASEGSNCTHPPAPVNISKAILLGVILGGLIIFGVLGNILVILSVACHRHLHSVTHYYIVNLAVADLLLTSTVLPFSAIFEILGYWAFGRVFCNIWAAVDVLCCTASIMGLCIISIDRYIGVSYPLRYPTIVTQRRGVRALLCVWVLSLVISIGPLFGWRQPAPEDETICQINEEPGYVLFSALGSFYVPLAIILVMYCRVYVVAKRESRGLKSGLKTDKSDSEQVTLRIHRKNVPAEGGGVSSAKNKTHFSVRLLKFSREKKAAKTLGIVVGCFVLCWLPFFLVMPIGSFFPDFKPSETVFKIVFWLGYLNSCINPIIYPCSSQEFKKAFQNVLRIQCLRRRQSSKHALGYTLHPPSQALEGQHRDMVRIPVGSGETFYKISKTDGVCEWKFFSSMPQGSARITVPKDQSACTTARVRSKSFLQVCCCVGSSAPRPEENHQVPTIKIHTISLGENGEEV

D(2) dopamine receptor = D(2) dopamine receptor (Rattus norvegicus, UniProt P61169); test: Compound was measured for affinity at Dopamine receptor D2 labeled with [3H]spiroperidol radioligand in striatum tissue; assay type: tissue-based
Sequence of D(2) dopamine receptor (P61169 whole entry): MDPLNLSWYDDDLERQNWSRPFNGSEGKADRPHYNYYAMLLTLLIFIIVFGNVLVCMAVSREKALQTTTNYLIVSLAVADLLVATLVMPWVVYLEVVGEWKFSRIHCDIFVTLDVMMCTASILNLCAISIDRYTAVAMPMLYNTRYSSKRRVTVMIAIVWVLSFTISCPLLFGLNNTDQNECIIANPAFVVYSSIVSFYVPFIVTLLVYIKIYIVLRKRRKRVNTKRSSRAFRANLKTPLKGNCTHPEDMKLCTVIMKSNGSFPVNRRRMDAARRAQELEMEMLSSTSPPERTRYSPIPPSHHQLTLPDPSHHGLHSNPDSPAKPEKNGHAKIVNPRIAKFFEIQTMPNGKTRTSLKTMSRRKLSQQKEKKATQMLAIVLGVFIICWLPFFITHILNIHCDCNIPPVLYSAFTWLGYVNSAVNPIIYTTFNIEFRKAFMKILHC

Rattus norvegicus [18] = test: In vivo inhibition of amphetamine induced stereotypy in rat by the compound administered intraperitoneally; assay type: functional; settings: ip
Rattus norvegicus [19] = test: In vivo activity was measured by the intracranial self stimulation in rat; assay type: functional
Rattus norvegicus [20] = test: In vivo activity administered intraperitoneally was determined by social interaction of rat at […]; assay type: functional
Rattus norvegicus [21] = test: In vivo activity administered intraperitoneally was determined by induction of catalepsy in rat at […]; assay type: functional

SMILES	IC50 [1]	IC50 [2]	ED50 (Mus musculus)	further results
COc1ccccc1N1CCN(CCCON2C(=O)CC3(CCCC3)CC2=O)CC1	1190 nM	110 nM	11 mg/kg	–
O=C1CC2(CCCC2)CC(=O)N1OCCCN1CCN(c2cccc(Cl)c2)CC1	–	40 nM	> 20 mg/kg	–
O=C1CC2(CCCC2)CC(=O)N1OCCN1CCN(c2ncccn2)CC1	–	–	> 20 mg/kg	–
O=C1CC2(CCCC2)CC(=O)N1OCCCN1CCN(c2ccccc2Cl)CC1	–	220 nM	> 20 mg/kg	–
O=C1CC2(CCCC2)CC(=O)N1OCCN1CCN(c2nsc3ccccc23)CC1	240 nM	970 nM	> 20 mg/kg	–
Cc1nc2n(c(=O)c1CCN1CCC(c3noc4cc(F)ccc34)CC1)CCCC2 [RISPERIDONE]	–	–	0.06 mg/kg	ED50 (Rattus norvegicus [3]): 1.3 mg/kg; Inhibition (Rattus norvegicus [4]): 27%; ED50 (Rattus norvegicus [5]): 3.2 mg/kg; ED50 (Rattus norvegicus [6]): 5.7 mg/kg; ED50 (Rattus norvegicus [7]): 0.13 mg/kg; ED50 (Rattus norvegicus [8]): 0.48 mg/kg
CSc1cccc(N2CCN(CCCON3C(=O)CC4(CCCC4)CC3=O)CC2)c1	–	50 nM	> 20 mg/kg	–
O=C1CC2(CCCC2)CC(=O)N1OCCCN1CCN(C2=NS(=O)(=O)c3ccccc32)CC1	> 20000 nM	> 20000 nM	> 20 mg/kg	–
Cc1cccc(N2CCN(CCCON3C(=O)c4ccccc4C3=O)CC2)c1	–	–	> 20 mg/kg	–
COc1ccccc1N1CCN(CCCON2C(=O)c3ccccc3C2=O)CC1	–	6900 nM	> 20 mg/kg	IC50 (D(2) dopamine receptor): > 20000 nM
O=C1c2ccccc2C(=O)N1OCCCN1CCN(c2ccc3ccccc3n2)CC1	–	–	> 20 mg/kg	–
CN1CCN(C2=Nc3cc(Cl)ccc3Nc3ccccc32)CC1 [CLOZAPINE]	–	–	8.1 mg/kg	ED50 (Rattus norvegicus [3]): > 80 mg/kg; ED50 (Rattus norvegicus [7]): 9.1 mg/kg; ED50 (Rattus norvegicus [8]): 13.1 mg/kg
O=C(CCCN1CCC(O)(c2ccc(Cl)cc2)CC1)c1ccc(F)cc1 [HALOPERIDOL]	–	–	0.25 mg/kg	ED50 (Rattus norvegicus [3]): 7.3 mg/kg; ED50 (Rattus norvegicus [5]): 0.31 mg/kg; ED50 (Rattus norvegicus [6]): 0.659 mg/kg; ED50 (Rattus norvegicus [18]): 0.215 mg/kg; ED50 (Rattus norvegicus [19]): 0.077 mg/kg; ED50 (Rattus norvegicus [8]): 0.53 mg/kg
O=C1CC2(CCCC2)CC(=O)N1OCCCN1CCN(c2cccc(C(F)(F)F)c2)CC1	–	30 nM	> 20 mg/kg	–
CSc1cccc(N2CCN(CCCON3C(=O)c4ccccc4C3=O)CC2)c1	–	–	> 20 mg/kg	–
O=C1c2ccccc2C(=O)N1OCCCN1CCN(c2cccc(Cl)c2)CC1	–	–	> 20 mg/kg	–
O=C1CC2(CCCC2)CC(O)N1OCCCN1CCN(c2nsc3ccccc23)CC1 (stereo unspecified)	10 nM	80 nM	> 20 mg/kg	–
O=C1c2ccccc2C(=O)N1OCCCN1CCN(c2cccc(C(F)(F)F)c2)CC1	–	–	> 20 mg/kg	IC50 (D(2) dopamine receptor): > 20000 nM
Cc1ccccc1N1CCN(CCCON2C(=O)c3ccccc3C2=O)CC1	–	–	> 20 mg/kg	–
O=C1CC2(CCCC2)CC(=O)N1OCCCN1CCN(c2ccc3ccccc3n2)CC1	–	–	> 20 mg/kg	–
O=C1CC2(CCCC2)CC(=O)N1CCCCN1CCN(c2nsc3ccccc23)CC1 [TIOSPIRONE]	–	–	0.84 mg/kg	ED50 (Rattus norvegicus [3]): 2.77 mg/kg; Inhibition (Rattus norvegicus [20]): 34%; ED50 (Rattus norvegicus [5]): 3.7 mg/kg; Inhibition (Rattus norvegicus [21]): 67%; ED50 (Rattus norvegicus [7]): 0.124 mg/kg; ED50 (Rattus norvegicus [8]): 0.93 mg/kg

Second part, led by results:

IC50 [1]	IC50 [2]	SMILES	ED50 (Mus musculus)	further results
3200 nM	370 nM	COc1ccccc1N1CCN(CCON2C(=O)CC3(CCCC3)CC2=O)CC1	> 20 mg/kg	–
–	380 nM	O=C1CC2(CCCC2)CC(=O)N1OCCCN1CCN(c2ncccn2)CC1	> 20 mg/kg	–
2700 nM	70 nM	COc1ccccc1N1CCN(CCCON2CCC3(CCCC3)CC2=O)CC1	> 20 mg/kg	–
390 nM	90 nM	Cc1cccc(N2CCN(CCCON3C(=O)CC4(CCCC4)CC3=O)CC2)c1	26.5 mg/kg	–
8100 nM	2200 nM	O=C1CC2(CCCC2)CC(=O)N1OCCCN1CCN(c2nc3ccccc3s2)CC1	> 20 mg/kg	–
20 nM	110 nM	O=C1CC2(CCCC2)CC(=O)N1OCCCN1CCN(c2nsc3ccccc23)CC1	5.7 mg/kg	ED50 (Rattus norvegicus [3]): > 20 mg/kg; Catalepsy (Rattus norvegicus [9]): 33%; Increase (Rattus norvegicus [10]): 24%; ED50 (Rattus norvegicus [5]): 35.4 mg/kg; ED50 (Rattus norvegicus [11]): 2.5 mg/kg; IC50 (D(1A) dopamine receptor): 6600 nM; IC50 [12]: 1100 nM; Inhibition (Rattus norvegicus [13]): 17%; IC50 [14]: 5530 nM; ED50 (Rattus norvegicus [15]): 12.5 mg/kg; Catalepsy (Rattus norvegicus [16]): 83%; IC50 [17]: 10 nM
–	60 nM	COc1ccccc1N1CCN(CCCON2C(=O)CC3(CCCC3)CC2O)CC1 (stereo unspecified)	> 20 mg/kg	–
–	> 20000 nM	O=C1c2ccccc2C(=O)N1OCCCN1CCN(c2nsc3ccccc23)CC1	> 20 mg/kg	–
10 nM	30 nM	O=C1CC2(CCCC2)CCN1OCCCN1CCN(c2nsc3ccccc23)CC1	17.8 mg/kg	–
250 nM	170 nM	Cc1cccc(N2CCN(CCCON3C(=O)CC4(CCCC4)CC3=O)CC2)c1C	39.7 mg/kg	–
